Experiments:
[1] = test system: murine Hes1 (N1 signalling mediated via mJ1); assay: Hes1 qPCR in B16F10 cells stably expressing murine J1; type: cell-based, mouse; details: mAb 10 μg/ml, DBZ 100 nM, 7 days
Description: FIG. 10. […] (A) Mouse melanoma B16F10 cells stably expressing murine J1 were cultured with 10 μg/ml of each J1 mAb, or an IgG1 control antibody, for 7 days with fresh mAb supplemented every 2 days. The γ-secretase inhibitor DBZ (100 nM) was used as a control for Notch inhibition. Cells were harvested, total RNA extracted and cDNA was synthesised. Murine Hes1 expression levels were detected by real-time PCR normalised against GAPDH. […] (B) Human breast cancer (MDA-MB-231) and primary endothelial cells (HUVEC) were cultured over plates coated with recombinant rat Jagged1 (rrJag1-Fc) or a control protein (mIgG1) in the presence of 10 μg/ml of J1 mAbs or isotype control Ab. 24 hours later cells were harvested, total RNA extracted and cDNA was synthesised. Expression of the human Notch-target genes HES1 and HEY2 was analysed by real-time PCR and β2-microglobulin was used as control gene. Results from one representative experiment are shown. […]
Total RNA from cell cultures/spheroids was isolated using RNeasy mini kit (Qiagen, UK) according to the manufacturer's instructions. […] Quantitative PCR (qPCR) analysis was performed in triplicate using the SYBR GreenER qPCR SuperMix Universal (Invitrogen) and Chromo4 fluorescence detector (MJ Research, USA). Relative quantification was done using the ΔΔCt method normalizing to β2-microglobulin gene or murine β-Actin expression. […]

[2] = test system: J1-induced Notch signalling; assay: Luciferase assay, LS174T RBPJ reporter stimulated with J1 protein; type: cell-based, human
Description: FIG. 9. […] (A) The colorectal cancer cell line LS174T expressing luciferase under the control of Notch co-factor RBPJ was stimulated with mammalian cell-expressed soluble J1 proteins (NE3-Fc and NE12-Fc) or a control protein in the presence of J1 mAbs (10 μg/ml), and luciferase activity was measured. […] (C) Breast cancer MDA-MB-231 cells were cultured with J1 mAbs. The expression level of the Notch target gene HES1 was measured by qPCR using β2m as the control gene. In all experiments the γ-secretase inhibitor DBZ was used as a positive control for pan Notch inhibition and a control mAb (IgG2b or IgG1) or no treatment (NT) were negative controls.
FIG. 20. Inhibition of human Jagged 1/Notch signalling by humanised and de-immunised J1-mAbs in vitro. The colorectal cancer cell line LS174T expressing luciferase under the control of Notch co-factor RbPJ was stimulated with mammalian cell-expressed recombinant J1 protein (NE3-Fc protein, right bar for each treatment) or a control protein (left bar) in the presence of J1 mAbs (10 μg/ml), and luciferase activity was measured. The parental murine monoclonal antibody (Mo), Murine IgG1, DMSO and DBZ were used as controls.
Having established that the J1 mAbs were able to block the binding of the J1 ligand to its receptor N1 their effect on the activity of the Notch signalling pathway was investigated. The human colorectal cancer cell line LS174T, stably expressing a luciferase reporter gene under control of Notch co-factor RBPJ, was stimulated with two forms of immobilised J1 protein: N-terminus to EGF3 and N-terminus to EGF12. […] Importantly, the best two J1 mAbs (J1-65D and J1-183D) were also tested against other Notch ligands in order to verify ligand specificity.
Prior to experiment, clear bottom 96-well plates (CELLSTAR) wells were coated with either J1-ECD fragments (NE3-Fc and NE12-Fc), other Notch-ligands (J2 or DLL4; both from R&D) or control protein (mlgG2b) at the concentration of 5 μg/ml in 0.1% BSA-PBS (overnight incubation at 4° C.). LS174T colorectal cancer cells, expressing the luciferase gene under control of the Notch cofactor RbPJ, were then plated (4×10^4 cells/well) in the presence of different mAbs (10 μg/ml) or DBZ (100 nM). Luciferase activity was then quantified 24 hours later using the Bright-Glo Luciferase Assay System (Promega).

SMILES: C[C@H](NC(=O)Cc1cc(F)cc(F)c1)C(=O)N[C@@H]1C(=O)N(C)c2ccccc2-c2ccccc21 [DBZ, reference compound]
- repression of murine Hes1 expression [1]: Repression of Hes1 expression was observed
- inhibition of J1-induced luciferase activity ([2]; NE3-Fc and NE12-Fc, mAbs 10 μg/ml, DBZ 100 nM): blocked
- inhibition of J1-induced luciferase activity ([2]; humanised/chimeric mAbs 10 μg/ml, NE3-Fc, DBZ control): blocked

Reference: patent US9725518B2, “Antibodies that bind to Jagged 1” (Cancer Research Technology Limited, priority 2013, dated 2017)
